From patent US5030760A, “Tetrahydrophthalimides, and their production and use” (Sumitomo Chemical Company, Ltd., priority 1981, dated 1991)

Legend:
wild oat = assay: Test Example 1, foliar treatment, herbicidal activity; type: in vivo, Avena fatua; settings: 3 weeks
Procedure, shortened: (§1)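 Crops and weeds sown in upland soil, greenhouse-grown 2 weeks, then sprayed on foliage with compound as emulsifiable concentrate in water plus spreading agent at 5 liters per are. Scored 3 weeks later from aerial fresh weight as percent of untreated plants, converted to a rating scale.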

velvetleaf [1] = assay: as above; type: in vivo, Abutilon theophrasti; settings: 3 weeks
Procedure, shortened: as §1

corn [2] = assay: Test Example 2, field foliar treatment, phytotoxicity to corn; type: in vivo; settings: 3 weeks
Description: (§2) The application of the tetrahydrophthalimides (I) as herbicides will be illustratively shown in the following Examples wherein the phytotoxicity to cultivated plants and the herbicidal activity on weeds were evaluated as follows: the aerial parts of the test plants were cut off and weighed (fresh weight); the percentage of the fresh weight of the treated plant to that of the untreated plant was calculated with the latter fresh weight taken as 100; and the crop damage and the herbicidal activity were evaluated by the standard given in the table below. The rating values of phytotoxicity, 0 and 1, and those of herbicidal effect, 5 and 4, are generally regarded as satisfactory to protect cultivated plants and control weeds, respectively. The rating values in the paddy field test alone were calculated from the dry weight of the test plants.
Seeds of corn and broad-leaved weeds such as cocklebur, common purslane and tall morningglory were sown in the field as previously laid up in ridges, each ridge having an upper width of 1 m. At the time when the corn grew up to the 6-leaf stage and the broad-leaved weeds up to 2 to 5-leaf stages, a designed amount of the test compound formulated into an emulsifiable concentrate according to Preparation Example 2 and dispersed in water was sprayed to the foliage of the test plants with three replications over the top by means of a small hand sprayer at a spray volume of 5 liters per are. After cultivation for 3 weeks, herbicidal activity and phytotoxicity were examined.

tall morningglory [3] = assay: Test Example 3, soil surface spraying, herbicidal activity; type: in vivo, Ipomoea purpurea; settings: 20 days
Description: as §2
Plastic trays (35 cm×25 cm×15 cm) were filled with upland field soil, and the seeds of tall morningglory, velvetleaf and sicklepod and the seeds of corn were sown therein. A designed amount of the test compounds formulated into a wettable powder according to Preparation Example 1 was dispersed in water and applied by spraying at a spray volume of 5 liters per are to the whole surface of the soil. After the spraying, the test plants were placed in a greenhouse and grown for 20 days, and herbicidal activity and phytotoxicity were examined.

corn [4] = assay: Test Example 4, pre-emergence treatment, phytotoxicity to corn; type: in vivo; settings: 20 days
Procedure, shortened: (§3)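 Seeds were sown in upland field soil and the compound was sprayed pre-emergence as an emulsifiable concentrate dispersed in water with spreading agent, at 5 liters per are. Plants were grown 20 days in a greenhouse. Ratings came from aerial fresh weight as a percentage of untreated plants.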

velvetleaf [5] = assay: Test Example 4, pre-emergence treatment, herbicidal activity; type: in vivo, Abutilon theophrasti; settings: 20 days
Procedure, shortened: as §3

Johnsongrass [6] = assay: as above; type: in vivo, Sorghum halepense; settings: 20 days
Procedure, shortened: as §3

soybean = assay: Test Example 5, spraying over the top, phytotoxicity to soybean; type: in vivo; settings: sprayed over the top, 20 days
Description: as §2
(§4) Plastic trays (35 cm×25 cm×15 cm) were filled with upland field soil, and the seeds of tall morningglory, velvetleaf, jimsonweed, sicklepod, hemp sesbania, prickly side, Johnsongrass, green foxtail and large crabgrass and the seeds of soybean were sown therein. A designed amount of the test compound formulated into a wettable powder according to Preparation Example 1 and dispersed in water was sprayed over the top by means of a small hand sprayer at a spray volume of 5 liters per are. After the spraying, the test plants were grown in greenhouse for 20 days, and phytotoxicity and herbicidal activity were examined.

tall morningglory [7] = assay: Test Example 5, spraying over the top, herbicidal activity; type: in vivo, Ipomoea purpurea; settings: sprayed over the top, 20 days
Description: as §2, §4

hemp sesbania = assay: as above; type: in vivo, Sesbania exaltator; settings: sprayed over the top, 20 days
Description: as §2, §4

prickly sida = assay: as above; type: in vivo, Sida spinosa; settings: sprayed over the top, 20 days
Description: as §2, §4

green foxtail = assay: as above; type: in vivo, Setaria viridis; settings: sprayed over the top, 20 days
Description: as §2, §4

large crabgrass = assay: as above; type: in vivo, Digitaria sanguinalis; settings: sprayed over the top, 20 days
Description: as §2, §4

Johnsongrass [8] = assay: as above; type: in vivo, Sorghum halepense; settings: sprayed over the top, 20 days
Description: as §2, §4

rice plant = assay: Test Example 6, paddy pot perfusion, phytotoxicity to rice plant; type: in vivo; settings: 3 weeks, dry weight
Description: as §2
(§5) Wagner's pots (1/5000 are) were filled with paddy field soil containing the seeds of broad-leaved weeds (e.g. monochoria, false pimpernel, toothcup) and the seeds of barnyardgrass and hardstem bulrush, and water was poured therein until the depth of water became 4 cm. Rice seedlings of the 3.5-leaf stage and the tubers of arrowhead were transplanted therein and grown for 2 days in a greenhouse. A designed amount of the test compound formulated in an emulsifiable concentrate according to Preparation Example 2 was applied to the pots by perfusion. Thereafter, the test plants were grown for an additional 3 weeks in the greenhouse, and herbicidal activity and phytotoxicity were examined. In this treatment, the emulsifiable concentrate was dispersed in water for application at a perfusion volume of 10 liters per are.

barnyardgrass = assay: Test Example 6, paddy pot perfusion, herbicidal activity; type: in vivo, Echinochloa crus-galli; settings: 3 weeks, dry weight
Description: as §2, §5

broad-leaved weed = assay: as above; type: in vivo, monochoria, false pimpernel, toothcup; settings: 3 weeks, dry weight
Description: as §2, §5

hardstem bulrush = assay: as above; type: in vivo, Scirpus juncoides; settings: 3 weeks, dry weight
Description: as §2, §5

arrowhead = assay: as above; type: in vivo, Sagittaria pygmaea; settings: 3 weeks, dry weight
Description: as §2, §5
Note: ranges in brackets are in %.

SMILES	Herbicidal activity, Wild cat (wild oat; 1.25 g/are)	Herbicidal activity, Wild cat (wild oat; 5 g/are)	Herbicidal activity, Velvetleaf (velvetleaf [1]; 1.25 g/are)	Herbicidal activity, Velvetleaf (velvetleaf [1]; 5 g/are)	Phytotoxicity, Corn (corn [2]; 0.63 g/are)	Phytotoxicity, Corn (corn [2]; 1.25 g/are)	Herbicidal activity, Tall morningglory (tall morningglory [3]; 5 g/are)	Herbicidal activity, Tall morningglory (tall morningglory [3]; 10 g/are)	Phytotoxicity, Soybean (soybean; 10 g/are)	Phytotoxicity, Soybean (soybean; 20 g/are)	Herbicidal activity, Tall morningglory (tall morningglory [7]; 10 g/are)	Herbicidal activity, Tall morningglory (tall morningglory [7]; 20 g/are)	Herbicidal activity, Hemp sesbania (hemp sesbania; 10 g/are)	Herbicidal activity, Hemp sesbania (hemp sesbania; 20 g/are)	Herbicidal activity, Prickly sida (prickly sida; 10 g/are)	Herbicidal activity, Prickly sida (prickly sida; 20 g/are)	Herbicidal activity, Green foxtail (green foxtail; 10 g/are)	Herbicidal activity, Green foxtail (green foxtail; 20 g/are)	Herbicidal activity, Large crabgrass (large crabgrass; 10 g/are)	Herbicidal activity, Large crabgrass (large crabgrass; 20 g/are)	further results
O=C1C2=C(CCCC2)C(=O)N1c1ccc(Cl)cc1F [A, 2-fluoro-4-chlorophenyltetrahydrophthalimide, reference compound]	0 (61-100)	1 (41-60)	5 (0)	5 (0)	0 (100)	1 (90-99)	0 (61-100)	0 (61-100)	1 (90-99)	2 (80-89)	0 (61-100)	1 (41-60)	3 (11-20)	5 (0)	5 (0)	5 (0)	5 (0)	5 (0)	5 (0)	5 (0)	Phytotoxicity, Corn (corn [4]; 2.5 g/are): 0 (100); Phytotoxicity, Corn (corn [4]; 10 g/are): 2 (80-89); Herbicidal activity, Velvetleaf (velvetleaf [5]; 2.5 g/are): 4 (1-10); Herbicidal activity, Velvetleaf (velvetleaf [5]; 10 g/are): 5 (0); Herbicidal activity, Johnsongrass (Johnsongrass [6]; 2.5 g/are): 1 (41-60); Herbicidal activity, Johnsongrass (Johnsongrass [6]; 10 g/are): 3 (11-20); Herbicidal activity, Johnsongrass (Johnsongrass [8]; 10 g/are): 4 (1-10); Herbicidal activity, Johnsongrass (Johnsongrass [8]; 20 g/are): 5 (0); Phytotoxicity, Rice plant (rice plant; 1.25 g/are): 0 (100); Phytotoxicity, Rice plant (rice plant; 2.5 g/are): 1 (90-99); Herbicidal activity, Barnyardgrass (barnyardgrass; 1.25 g/are): 1 (41-60); Herbicidal activity, Barnyardgrass (barnyardgrass; 2.5 g/are): 2 (21-40); Herbicidal activity, Broad-leaved weed (broad-leaved weed; 1.25 g/are): 5 (0); Herbicidal activity, Broad-leaved weed (broad-leaved weed; 2.5 g/are): 5 (0); Herbicidal activity, Hardstem bulrush (hardstem bulrush; 1.25 g/are): 2 (21-40); Herbicidal activity, Hardstem bulrush (hardstem bulrush; 2.5 g/are): 3 (11-20); Herbicidal activity, Arrowhead (arrowhead; 1.25 g/are): 0 (61-100); Herbicidal activity, Arrowhead (arrowhead; 2.5 g/are): 0 (61-100)
CC(C)Oc1cc(N2C(=O)C3=C(CCCC3)C2=O)c(Cl)cc1Cl [B, 2,4-dichloro-5-isopropoxyphenyltetrahydrophthalimide, reference compound]	0 (61-100)	1 (41-60)	5 (0)	5 (0)	1 (90-99)	1 (90-99)	0 (61-100)	0 (61-100)	0 (100)	0 (100)	0 (61-100)	0 (61-100)	1 (41-60)	2 (21-40)	3 (11-20)	4 (1-10)	3 (11-20)	4 (1-10)	3 (11-20)	4 (1-10)	Phytotoxicity, Corn (corn [4]; 5 g/are): 0 (100); Phytotoxicity, Corn (corn [4]; 20 g/are): 1 (90-99); Herbicidal activity, Velvetleaf (velvetleaf [5]; 5 g/are): 1 (41-60); Herbicidal activity, Velvetleaf (velvetleaf [5]; 20 g/are): 3 (11-20); Herbicidal activity, Johnsongrass (Johnsongrass [6]; 5 g/are): 1 (41-60); Herbicidal activity, Johnsongrass (Johnsongrass [6]; 20 g/are): 2 (21-40); Herbicidal activity, Johnsongrass (Johnsongrass [8]; 10 g/are): 2 (21-40); Herbicidal activity, Johnsongrass (Johnsongrass [8]; 20 g/are): 3 (11-20); Phytotoxicity, Rice plant (rice plant; 1.25 g/are): 0 (100); Phytotoxicity, Rice plant (rice plant; 2.5 g/are): 0 (100); Herbicidal activity, Barnyardgrass (barnyardgrass; 1.25 g/are): 1 (41-60); Herbicidal activity, Barnyardgrass (barnyardgrass; 2.5 g/are): 3 (11-20); Herbicidal activity, Broad-leaved weed (broad-leaved weed; 1.25 g/are): 5 (0); Herbicidal activity, Broad-leaved weed (broad-leaved weed; 2.5 g/are): 5 (0); Herbicidal activity, Hardstem bulrush (hardstem bulrush; 1.25 g/are): 1 (41-60); Herbicidal activity, Hardstem bulrush (hardstem bulrush; 2.5 g/are): 2 (21-40); Herbicidal activity, Arrowhead (arrowhead; 1.25 g/are): 0 (61-100); Herbicidal activity, Arrowhead (arrowhead; 2.5 g/are): 0 (61-100)
